# Patent US20170251707A1, “PROCESS FOR THE PRODUCTION OF LOW COLORIE SWEETENER COMPOSITIONS AND USES THEREOF” (priority 2016, published 2017)
# Where two headings read alike, the source gives them in different places.
# What was measured:
# [1] = alone or in combination with fructose, compared with glucose alone; cited from earlier work
# [2] = blood plasma testing; cited from earlier work
# [3] = pre-exercise ingestion; cited from earlier work
# [4] = HFD-fed mice; cited from earlier work
# [5] = cited from earlier work
# [6] = continuous intravenous, 1 g/kg body weight, human subjects; cited from earlier work
# [7] = cited from earlier work; remark: listed apart in the source
# [8] = cited from earlier work; remark: listed apart in the source
# [9] = In vivo study: test beverage, postprandial glucose and insulin responses; parameters: species or system people; conditions: versus 25 g sucrose control, p=0.0001
# Description: FIGS. 3 and 4 represent the outcome of an in vivo study performed using 15 previously selected people. Selected subjects arrived at the labs between 8 am and 9:45 am, and the start time for each subject was kept as similar as possible. After being weighed, 2 fasting blood samples at 5 min intervals were collected; subjects started to consume a test beverage (sweetener mixed with water) which was consumed in its entirety within 5 min. A timer was started at the first sip of the beverage, and further capillary blood samples were obtained at t=15, 30, 45, 60, 90 and 120±2 min, for the determination of glucose and insulin concentrations. Blood samples were collected into 2 separate vials: one (2-3 drops blood) for glucose analysis and the other (8-10 drops of blood) for insulin. Before and during the test, a blood glucose test record was filled out with the subject's initials, ID number, date, body weight, test meal, time of starting to eat, time it took to eat, time and composition of last meal, and any unusual activities. At the beginning and end, participants were asked to fill out a symptom questionnaire. During the 2 hours of the test, participants remain seated quietly. After the last blood sample was obtained participants were offered a snack and allowed to leave. […]
# [10] = healthy and type 2 diabetic subjects, sucrose with 4% added L-Arabinose; cited from earlier work
# [11] = cited from earlier work; remark: listed apart in the source
# [12] = rats, HCHF diet; cited from earlier work
# [13] = test system: intestinal sucrase; conditions: porcine intestinal mucosa, in vitro; cited from earlier work
# [14] = acute (test meal) and sub chronic (twice a day for 9 week), after sucrose feeding; cited from earlier work
# [15] = humans, after six months; cited from earlier work
# [16] = oral 15, 35 or 75 g in 250 ml, versus water alone
# [17] = sucrose in combination with L-Arabinose versus sucrose
structure (smiles),measurement,setting,value
OC[C@H]1O[C@H](O[C@H]2O[C@H](CO)[C@@H](O)[C@H](O)[C@H]2O)[C@H](O)[C@@H](O)[C@@H]1O [Trehalose],glycemic response,[1],lower
same,insulinemic response,[1],lower
same,influence on blood glucose levels,[2],almost flat response
same,insulin response prior to exercise,[3],lower
same,plasma glucose response prior to exercise,[3],lower
same,prevalence of rebound hypoglycemia,[3],reduced
same,adipocyte hypertrophy,[4],prevents
same,insulin resistance,[4],mitigates
"OC[C@@H](O)[C@@H](O)CO [Erythritol, (2R,3S)-butane-1,2,3,4-tetraol]",excretion,"[5]; human metabolism, for the most part",excreted unchanged in the urine
same,absorption,[5]; human metabolism,absorbed into the bloodstream in the small intestine
same,increases in blood sugar levels,[5]; in vivo,does not induce increases
same,laxative effects,[5]; in vivo,does not normally cause laxative effects
same,tooth decay,[5]; in vivo,does not cause
same,gastric side effects,[5]; unlike other sugar alcohols,unlikely to cause
OCC(O)CO [glycerol],serum insulin concentration,[6],did not result in an increased
same,insulin response,[7]; [16],did not differ significantly from those after water alone
same,plasma glucose response,[7]; [16],did not differ significantly from those after water alone
"O=C[C@H](O)[C@@H](O)[C@H](O)[C@H](O)CO [D-glucose, reference compound]",reduction in blood glucose levels,[8]; after 180 minute,20%
same,increment / elevation of blood glucose levels,[8]; healthy human subjects,52%
same,incremental area under the glucose response curve (AUC),[7]; oral 15 or 75 g in 250 ml,significant dose-dependent increase
same,incremental area under the insulin response curve (AUC),[7]; oral 15 or 75 g in 250 ml,significant dose-dependent increase
OC[C@H]1O[C@H](O[C@]2(CCl)O[C@H](CCl)[C@@H](O)[C@@H]2O)[C@H](O)[C@@H](O)[C@H]1Cl [sucralose],postprandial insulin responses (FIG. 5),[9],significantly lower than sucrose
"O=C[C@H](O)[C@@H](O)[C@@H](O)[C@H](O)CO [galactose, reference compound]",insulin response prior to exercise,[3],lower
same,plasma glucose response prior to exercise,[3],lower
same,prevalence of rebound hypoglycemia,[3],reduced
O=C[C@H](O)[C@@H](O)[C@@H](O)CO [L-Arabinose],increases in plasma glucose,[10],reduced
same,increases in serum insulin,[10],reduced
same,liver triacylglycerol concentrations,"[11]; rats fed with sucrose, additional feeding of L-Arabinose",prevented this increase
same,blood glucose response,[11]; [17],suppressed
same,insulin response,[11]; [17],suppressed
same,"body weight, lee's index, visceral index",[12],lower
same,"dyslipidemia, insulin resistance, inflammation, and viscera function",[12],improve
same,effect on intestinal sucrase activity,[13],inhibitory effect
same,blood glucose,[14],suppressed
same,diastolic blood pressure,[15],slightly decreased
same,high-density lipoprotein cholesterol,[15],slightly increased
same,"waist circumference, total cholesterol, fasting glucose, serum uric acid, low-density lipoprotein cholesterol",[15],decreased
